Test results from US10745416B2, “Macrocyclic compounds for treating disease” (Turning Point Therapeutics, Inc., priority 2017, dated 2020).

Legend:
Experiment in all cases: Cell proliferation assay (CellTiter-Glo, 72 hours)
KM12 cell (TPM3-TRKA) = format: cell-based, human; conditions: Homo sapiens, KM12, anti-cell proliferation
Protocol: (§1) Human medulla thyroid carcinoma cell line TT (containing RET […] mutation) and acute myelogenous cell line KG-1 were purchased from ATCC. Human colon cancer cell line KMI2 (containing TPM3-TRKA) was obtained from NCI.
(§2) Two thousand cells per well were seeded in 384 well white plate for 24 hrs, and then treated with compounds for 72 hours (37° C., 5% CO2). Cell proliferation was measured using CellTiter-Glo luciferase-based ATP detection assay (Promega) following the manufactures's protocol. IC50 determinations were performed using GraphPad Prism software (GraphPad, Inc., San Diego, Calif.).

KG-1 = format: cell-based, human; conditions: Homo sapiens, KG-1, anti-cell proliferation
Protocol: as §1, §2

BaF3 EML4-ALK = biological target: T1, BaF3 EML4-ALK (Homo sapiens, UniProt Q9UM73); format: cell-based; conditions: anti-cell proliferation
T1 construct: The EML4-ALK gene (variant 1) was synthesized at GenScript and cloned into pCDH-CMV-MCS-EF1-Puro plasmid (System Biosciences, Inc); fused on or other part: Q9HC35 (Echinoderm microtubule-associated protein-like 4)
T1 sequence (Q9UM73 whole entry, change not shown, the tested form may be a part): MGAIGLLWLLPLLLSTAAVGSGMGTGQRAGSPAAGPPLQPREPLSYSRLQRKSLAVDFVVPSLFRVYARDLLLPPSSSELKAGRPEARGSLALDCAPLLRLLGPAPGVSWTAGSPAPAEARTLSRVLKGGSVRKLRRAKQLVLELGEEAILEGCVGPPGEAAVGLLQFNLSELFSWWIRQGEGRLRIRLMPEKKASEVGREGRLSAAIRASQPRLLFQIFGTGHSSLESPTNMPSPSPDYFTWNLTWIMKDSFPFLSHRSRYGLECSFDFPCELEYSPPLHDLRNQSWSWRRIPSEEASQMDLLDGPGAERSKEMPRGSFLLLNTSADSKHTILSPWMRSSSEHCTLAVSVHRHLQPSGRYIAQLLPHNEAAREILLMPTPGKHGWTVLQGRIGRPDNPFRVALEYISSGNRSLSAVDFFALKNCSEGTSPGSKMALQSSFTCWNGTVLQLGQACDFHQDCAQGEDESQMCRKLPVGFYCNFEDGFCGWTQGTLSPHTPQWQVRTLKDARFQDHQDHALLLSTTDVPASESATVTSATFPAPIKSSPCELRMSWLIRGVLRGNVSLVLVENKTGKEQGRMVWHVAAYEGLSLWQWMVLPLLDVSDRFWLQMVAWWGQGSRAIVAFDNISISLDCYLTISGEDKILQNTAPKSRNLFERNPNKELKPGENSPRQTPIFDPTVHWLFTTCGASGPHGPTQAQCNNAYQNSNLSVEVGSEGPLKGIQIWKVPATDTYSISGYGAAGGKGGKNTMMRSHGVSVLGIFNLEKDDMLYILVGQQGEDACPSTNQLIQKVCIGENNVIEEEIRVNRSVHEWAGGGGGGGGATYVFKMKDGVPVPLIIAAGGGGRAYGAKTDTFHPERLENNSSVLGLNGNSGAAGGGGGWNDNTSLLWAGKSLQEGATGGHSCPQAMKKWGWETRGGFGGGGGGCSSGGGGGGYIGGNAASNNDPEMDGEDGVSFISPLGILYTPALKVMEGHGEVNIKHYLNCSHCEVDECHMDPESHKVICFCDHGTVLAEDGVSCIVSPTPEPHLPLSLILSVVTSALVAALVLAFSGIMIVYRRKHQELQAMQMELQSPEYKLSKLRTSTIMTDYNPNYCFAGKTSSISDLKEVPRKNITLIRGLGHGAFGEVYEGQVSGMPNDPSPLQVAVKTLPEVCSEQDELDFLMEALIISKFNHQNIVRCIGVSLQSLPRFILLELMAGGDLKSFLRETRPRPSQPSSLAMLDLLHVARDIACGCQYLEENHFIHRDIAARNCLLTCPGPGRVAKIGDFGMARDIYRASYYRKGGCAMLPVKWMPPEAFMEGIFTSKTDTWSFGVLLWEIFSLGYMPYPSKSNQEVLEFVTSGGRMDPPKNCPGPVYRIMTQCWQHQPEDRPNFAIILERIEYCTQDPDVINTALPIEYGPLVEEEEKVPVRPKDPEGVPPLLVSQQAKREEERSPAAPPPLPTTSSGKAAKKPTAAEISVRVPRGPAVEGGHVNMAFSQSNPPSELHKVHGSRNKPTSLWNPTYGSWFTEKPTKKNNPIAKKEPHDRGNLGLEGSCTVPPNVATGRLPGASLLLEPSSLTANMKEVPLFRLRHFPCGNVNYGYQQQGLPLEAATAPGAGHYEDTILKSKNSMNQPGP
Protocol: The EML4-ALK gene (variant 1) was synthesized at GenScript and cloned into pCDH-CMV-MCS-EF1-Puro plasmid (System Biosciences, Inc). Ba/F3-EML4-ALK wild type were generated by transducing Ba/F3 cells with lentivirus containing EML4-ALK wide type. Stable cell lines were selected by puromycin treatment, followed by IL-3 withdrawal. Briefly, 5×10^6 Ba/F3 cells were transduced with lentivirus supernatant in the presence of 8 μg/mL protamine sulfate. The transduced cells were subsequently selected with 1 μg/mL puromycin in the presence of IL3-containing medium RPMI1640, plus 10% FBS. After 10-12 days of selection, the surviving cells were further selected for IL3 independent growth.
as §2

BaF3 KIF5B-RET = biological target: T2, BaF3 KIF5B-RET (Homo sapiens, UniProt P07949); format: cell-based; conditions: anti-cell proliferation, read-out: BaF3 KIF5B-RET IC50
T2 construct: fused on or other part: P33176 (Kinesin-1 heavy chain)
T2 sequence (P07949 whole entry, change not shown, the tested form may be a part): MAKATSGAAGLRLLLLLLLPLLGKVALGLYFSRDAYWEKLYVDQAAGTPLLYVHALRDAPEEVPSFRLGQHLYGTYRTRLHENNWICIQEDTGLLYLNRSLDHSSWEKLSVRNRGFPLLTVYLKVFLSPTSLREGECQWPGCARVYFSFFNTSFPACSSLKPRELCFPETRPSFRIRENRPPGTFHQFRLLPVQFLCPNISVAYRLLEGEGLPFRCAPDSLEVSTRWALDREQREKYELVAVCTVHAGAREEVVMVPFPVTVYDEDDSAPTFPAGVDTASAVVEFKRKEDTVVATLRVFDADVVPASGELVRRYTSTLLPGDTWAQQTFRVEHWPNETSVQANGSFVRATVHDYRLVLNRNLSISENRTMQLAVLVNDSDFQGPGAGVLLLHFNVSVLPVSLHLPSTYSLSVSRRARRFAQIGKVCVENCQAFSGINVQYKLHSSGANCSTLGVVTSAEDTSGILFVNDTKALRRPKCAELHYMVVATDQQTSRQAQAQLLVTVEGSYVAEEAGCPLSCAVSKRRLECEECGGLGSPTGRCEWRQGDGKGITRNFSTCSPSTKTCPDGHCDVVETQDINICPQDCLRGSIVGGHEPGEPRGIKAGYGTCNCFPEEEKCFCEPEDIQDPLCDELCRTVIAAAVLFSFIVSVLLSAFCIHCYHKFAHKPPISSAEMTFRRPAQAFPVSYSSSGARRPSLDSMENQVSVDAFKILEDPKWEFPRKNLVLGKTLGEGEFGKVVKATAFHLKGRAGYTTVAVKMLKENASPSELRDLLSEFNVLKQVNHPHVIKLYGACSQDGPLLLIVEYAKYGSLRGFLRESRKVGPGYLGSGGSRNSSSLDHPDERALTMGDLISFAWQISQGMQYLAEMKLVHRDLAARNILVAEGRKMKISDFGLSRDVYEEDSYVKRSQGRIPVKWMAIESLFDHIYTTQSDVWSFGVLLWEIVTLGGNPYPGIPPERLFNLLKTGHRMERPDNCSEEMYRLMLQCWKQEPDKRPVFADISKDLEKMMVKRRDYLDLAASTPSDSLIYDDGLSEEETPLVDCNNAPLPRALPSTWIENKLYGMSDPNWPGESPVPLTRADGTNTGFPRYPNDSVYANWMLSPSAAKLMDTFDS
Description: (§3) The KIF5B-RET gene was synthesized at GenScript and cloned into pCDH-CMV-MCS-EF1-Puro plasmid (System Biosciences, Inc). KIF5B-RET point mutation V804M was generated at GenScript by PCR and confirmed by sequencing. Ba/F3-KIF5B-RET wild type and mutant were generated by transducing Ba/F3 cells with lentivirus containing KIF5B-RET wide type or mutant. Stable cell lines were selected by puromycin treatment, followed by IL-3 withdrawal. Briefly, 5×10^6 Ba/F3 cells were transduced with lentivirus supernatant in the presence of 8 μg/mL protamine sulfate. The transduced cells were subsequently selected with 1 µg/mL puromycin in the presence of IL3-containing medium RPMI1640, plus 10% FBS. After 10-12 days of selection, the surviving cells were further selected for IL3 independent growth.
as §2

BaF3 KIF5B-RET_V804M = biological target: T3, BaF3 KIF5B-RET_V804M (Homo sapiens, UniProt P07949, V804M, cells depend on it); format: cell-based; conditions: anti-cell proliferation, read-out: BaF3 KIF5B-RET_V804M IC50
T3 construct: fused on or other part: P33176 (Kinesin-1 heavy chain)
T3 sequence (P07949 whole entry V804M, the tested form may be a part): as the sequence (P07949 whole entry, change not shown, the tested form may be a part) above, with V804M counted along it
Description: as §3, §2

BaF3 KIF5B-RET_G810R = biological target: T4, BaF3 KIF5B-RET_G810R (Homo sapiens, UniProt P07949, G810R, cells depend on it); format: cell-based; conditions: anti-cell proliferation, read-out: BaF3 KIF5B-RET_G810R IC50
T4 construct: fused on or other part: P33176 (Kinesin-1 heavy chain)
T4 sequence (P07949 whole entry G810R, the tested form may be a part): as the sequence (P07949 whole entry, change not shown, the tested form may be a part) above, with G810R counted along it
Description: [The source words this procedure for another variant and reports this variant under the same test.] as §3, §2

Compound `O=C1NCC2(CCC2)COc2ncc(F)cc2CN2c3nc4c1cnn4cc3O[C@H]1CCC[C@H]12` [Compound 23, (3a′R,21a′S)-7′-fluoro-1′H,2′H,3′H,3a′H, 5′H,11′H,13′H,14′H,15′H,21a′H-spiro[cyclobutane-1,12′-[10,21]dioxa[4,9,14,17,18,19][hexaaza [18,20](metheno)cyclopenta[5,6][1,4]oxazino[4,3-e]pyrazolo[3,4-h]pyrido [2,3-b][1,5,7,11]oxatriazacyclotetradecin]-15′-one] has an IC50 (KM12 cell (TPM3-TRKA)) of 0.0529 µM, an IC50 (KG-1) of 0.228 µM and a GI50 (BaF3 EML4-ALK) of 1.68 µM. The GI50 (BaF3 KIF5B-RET) was 0.0989 µM, the GI50 (BaF3 KIF5B-RET_V804M) was 3 µM and the GI50 (BaF3 KIF5B-RET_G810R) was 0.422 µM.

Compound `O=C1NC2(COc3ncc(F)cc3CN3c4nc5c1cnn5cc4O[C@H]1CCC[C@H]13)CC(F)(F)C2` [Compound 25, (3a′R,20a′S)-3,3,7′-trifluoro-1′H,2′H, 3′H,3a′H,5′H,11′H,13′H,14′H,20a′H-spiro[cyclobutane-1,12′-[10,20]dioxa[4,9,13,16,17,18][hexaaza [17,19](metheno)cyclopenta[5,6][1,4]oxazino[3,4-i]pyrazolo[4,3-f]pyrido [3,2-l][1,4,8,10]oxatriazacyclotridecin]-14′-one] has an IC50 (KM12 cell (TPM3-TRKA)) of 0.277 µM, an IC50 (KG-1) of 0.677 µM and a GI50 (BaF3 EML4-ALK) of 3 µM. It also gave a GI50 (BaF3 KIF5B-RET) of 0.193 µM, a GI50 (BaF3 KIF5B-RET_V804M) of 3 µM and a GI50 (BaF3 KIF5B-RET_G810R) of 0.559 µM.

With `O=C1NCC(O)(O)COc2ncc(F)cc2CN2c3nc4c1cnn4cc3O[C@H]1CCC[C@H]12` [Compound 33, (3aR,21aS)-7-fluoro-12,12-dihydroxy-2,3,3a,11,12,13,14,21a-octahydro-1H,5H,15H-18,20-(metheno)cyclopenta[5,6][1,4]oxazino[4,3-e]pyrazolo[3,4-h]pyrido[2,3-b][1,5,7,11]oxatriazacyclotetradecin-15-one] the IC50 (KM12 cell (TPM3-TRKA)) was 0.124 µM, the IC50 (KG-1) was 0.356 µM and the GI50 (BaF3 EML4-ALK) was 2 µM. The GI50 (BaF3 KIF5B-RET) was 0.198 µM, the GI50 (BaF3 KIF5B-RET_V804M) was 4 µM and the GI50 (BaF3 KIF5B-RET_G810R) was 1.2 µM.

In the case of `O=C1NCC(F)(F)COc2ncc(F)cc2CN2c3nc4c1cnn4cc3O[C@H]1CCC[C@H]12` [Compound 40, (3aR,21aS)-7,12,12-trifluoro-2,3,3a,11,12,13,14,21a-octahydro-1H,5H, 15H-18,20-(metheno)cyclopenta[5,6][1,4] oxazino[4,3-e]pyrazolo[3,4-h]pyrido[2,3-b][1,5,7,11]oxatriazacyclotetradecin-15-one], the IC50 (KM12 cell (TPM3-TRKA)) is reported as < 0.0002 µM, the IC50 (KG-1) is reported as 0.0191 µM and the GI50 (BaF3 EML4-ALK) is reported as 1.95 µM. For the same compound, the GI50 (BaF3 KIF5B-RET) was < 0.0002 µM, the GI50 (BaF3 KIF5B-RET_V804M) was 5 µM and the GI50 (BaF3 KIF5B-RET_G810R) was 0.0018 µM.

`O=C1NC[C@H](F)COc2ncc(F)cc2CN2c3nc4c1cnn4cc3O[C@H]1CCC[C@H]12` [Compound 38, (3aR,12S,21aS)-7,12-difluoro-2,3,3a,11,12,13,21a-octahydro-1H,5H, 15H-18,20-(metheno)cyclopenta[5,6][1,4] oxazino[4,3-e]pyrazolo[3,4-h]pyrido[2,3-b][1,5,7,11]oxatriazacyclotetradecin-15-one] was tested, and the IC50 (KM12 cell (TPM3-TRKA)) was < 0.0002 µM, the IC50 (KG-1) was < 0.0002 µM and the GI50 (BaF3 EML4-ALK) was 0.0821 µM. The GI50 (BaF3 KIF5B-RET) was < 0.0002 µM, the GI50 (BaF3 KIF5B-RET_V804M) was 0.349 µM and the GI50 (BaF3 KIF5B-RET_G810R) was 0.0003 µM.

`O=C1N[C@@H]2CCC[C@@H]2Oc2ncc(F)cc2CN2c3nc4c1cnn4cc3O[C@H]1CCC[C@H]12` [Compound 24, (3aS,11aR,14aS,21aR)-18-fluoro-2,3,3a,11,11a,12,13,14,14a,21a-decahydro-1H,10H,20H-7,5-(metheno)cyclopenta[b]cyclopenta[5,6][1,4] oxazino[3,4-i]pyrazolo[4,3-f]pyrido[3,2-l][1,4,8,10]oxatriazacyclotridecin-10-one] showed an IC50 (KM12 cell (TPM3-TRKA)) of 0.0028 µM, an IC50 (KG-1) of 0.0087 µM and a GI50 (BaF3 EML4-ALK) of 0.469 µM. For the same compound, the GI50 (BaF3 KIF5B-RET) was 0.0018 µM, the GI50 (BaF3 KIF5B-RET_V804M) was 1.22 µM and the GI50 (BaF3 KIF5B-RET_G810R) was 0.0736 µM.

`CC1CNC(=O)c2cnn3cc4c(nc23)N(Cc2cc(F)cnc2OC1)[C@@H]1CCC[C@@H]1O4` (stereo partly drawn) [Compound 29, (3aR,21aS)-7-fluoro-12-methyl-2,3,3a,11,12,13,14,21a-octahydro-1H,5H,15H-18,20-(metheno)cyclopenta[5,6][1,4]oxazino[4,3-e]pyrazolo[3,4-h]pyrido[2,3-b][1,5,7,11]oxatriazacyclotetradecin-15-one] gave an IC50 (KM12 cell (TPM3-TRKA)) of 0.0017 µM, an IC50 (KG-1) of 0.0079 µM and a GI50 (BaF3 EML4-ALK) of 0.901 µM. For the same compound, the GI50 (BaF3 KIF5B-RET) was 0.0003 µM, the GI50 (BaF3 KIF5B-RET_V804M) was 1.38 µM and the GI50 (BaF3 KIF5B-RET_G810R) was 0.134 µM.

`C[C@H]1CNC(=O)c2cnn3cc4c(nc23)N(Cc2cc(F)cnc2O1)[C@@H]1COC[C@@H]1O4` [Compound 30, (3aR,11S,20aR)-7-fluoro-11-methyl-1,3,3a,12,13,20a-hexahydro-5H-17,19-(metheno)furo[3′,4′:5,6][1,4]oxazino[3,4-i]pyrazolo[4,3-f]pyrido[3,2-l][1,4,8,10]oxatriazacyclotridecin-14(11H)-one] gave an IC50 (KM12 cell (TPM3-TRKA)) of 0.0135 µM, an IC50 (KG-1) of 0.853 µM and a GI50 (BaF3 EML4-ALK) of 2 µM. It also gave a GI50 (BaF3 KIF5B-RET) of 0.162 µM, a GI50 (BaF3 KIF5B-RET_V804M) of 0.337 µM and a GI50 (BaF3 KIF5B-RET_G810R) of 1.86 µM.

Work on `C[C@H]1CNC(=O)c2cnn3cc4c(nc23)N(Cc2cc(F)cnc2O1)[C@@H]1CCCC[C@@H]1O4` [Compound 12, (4aR,12S,21aS)-8-fluoro-12-methyl-1,2,3,4,4a,13,14,21a-octahydro-6H-18, 20-(metheno)pyrazolo[4′,3′:6,7]pyrido [3′,2′:12,13][1,4,8, 10]oxatriazacyclotridecino[9,10-c][1,4]benzoxazin-15(12H)-one] yielded an IC50 (KM12 cell (TPM3-TRKA)) of 0.0138 µM, an IC50 (KG-1) of 0.16 µM and a GI50 (BaF3 EML4-ALK) of 2.71 µM. The GI50 (BaF3 KIF5B-RET) was 0.101 µM, the GI50 (BaF3 KIF5B-RET_V804M) was 4.62 µM and the GI50 (BaF3 KIF5B-RET_G810R) was 1.01 µM.

In the case of `C[C@@H]1CNC(=O)c2cnn3cc4c(nc23)N(Cc2cc(F)cnc2O1)[C@H]1CCC[C@H]1O4` [Compound 44, (3aS,11R,20aR)-7-fluoro-11-methyl-2,3 3a,12,13,20a-hexahydro-1H,5H-17,19-(metheno)cyclopenta[5,6][1,4] oxazino[3,4-i]pyrazolo[4,3-f]pyrido[3,2-l][1,4,8,10]oxatriazacyclotridecin-14(11H)-one], the IC50 (KM12 cell (TPM3-TRKA)) is reported as 0.668 µM, the IC50 (KG-1) is reported as > 10 µM and the GI50 (BaF3 EML4-ALK) is reported as > 10 µM. The GI50 (BaF3 KIF5B-RET) was > 10 µM, the GI50 (BaF3 KIF5B-RET_V804M) was > 10 µM and the GI50 (BaF3 KIF5B-RET_G810R) was > 10 µM.

`C[C@@H]1COc2ncc(F)cc2CN2c3nc4c(cnn4cc3O[C@H]3CCC[C@H]32)C(=O)N1` [Compound 6, (3aR,12R,20aS)-7-fluoro-12-methyl-2,3,3a,12,13,20a-hexahydro-1H,5H-17-19-(metheno)cyclopenta[5,6][1,4] oxazino[3,4-i]pyrazolo[4,3-f]pyrido[3,2-l][1,4,8,10]oxatriazacyclotridecin-14(11H)-one] was tested, and the IC50 (KM12 cell (TPM3-TRKA)) was 0.0002 µM, the IC50 (KG-1) was 0.001 µM and the GI50 (BaF3 EML4-ALK) was 0.145 µM. For the same compound, the GI50 (BaF3 KIF5B-RET) was 0.0002 µM, the GI50 (BaF3 KIF5B-RET_V804M) was 0.573 µM and the GI50 (BaF3 KIF5B-RET_G810R) was 0.003 µM.

`CC1(C)COc2ncc(F)cc2CN2c3nc4c(cnn4cc3O[C@H]3CCC[C@H]32)C(=O)N1` [Compound 21, (3aR,20aS)-7-fluoro-12,12-dimethyl-2,3,3a,12,13,20a-hexahydro-1H,5H-17,19-(metheno)cyclopenta[5,6] [1,4]oxazino[3,4-i]pyrazolo[4,3-f]pyrido [3,2-l][1,4,8,10]oxatriazacyclotridecin-14(11H)-one] was tested, and the IC50 (KM12 cell (TPM3-TRKA)) was 0.0138 µM, the IC50 (KG-1) was 0.0869 µM and the GI50 (BaF3 EML4-ALK) was 0.462 µM. For the same compound, the GI50 (BaF3 KIF5B-RET) was < 0.0002 µM, the GI50 (BaF3 KIF5B-RET_V804M) was 3.46 µM and the GI50 (BaF3 KIF5B-RET_G810R) was 0.082 µM.
